Results taken from patent US5627181A, “6-membered nitrogen-containing heteroaryl-oxazolidinones” (Bayer Aktiengesellschaft, priority 1994, dated 1997).
In brackets after ≈: the same amount, converted by molar mass.

Key:
Type in all cases: cell-based
Staph. 133 = assay: MIC values, Staph. 133; conditions: 37° C., about 20 hours
Protocol: (§1) The minimum inhibitory concentrations (MIC) were determined by the series dilution method on Iso-Sensitest agar (Oxoid). A series of agar plates which contained concentrations of the active compound which decreased by two-fold dilution in each case were prepared for each test substance. The agar plates were inoculated with a Multipoint inoculator (Denley). Overnight cultures of the pathogens which had been diluted beforehand such that each inoculation point contained about 10^4 colony-forming particles were used for the inoculation. The inoculated agar plates were incubated at 37° C. and the germ growth was read off after about 20 hours. The MIC value (μg/ml) indicates the lowest concentration of active compound at which no growth was detectable with the naked eye.
(§2) The MIC values were determined with the aid of the microdilution method in BH medium. Each test substance was dissolved in the nutrient medium. A concentration series of the test substances was prepared in the microtiter plate by serial dilution. Overnight cultures of the pathogens which were diluted 1:250 beforehand in the nutrient medium were used for the inoculation. In each case 100 μl of inoculation solution were added to 100 μl of the diluted nutrient solutions containing the active compound.

Staph. 48N = assay: MIC values, Staph. 48N; conditions: 37° C., about 20 hours
Protocol: as §1, §2

Staph 25701 = assay: MIC values, Staph 25701; conditions: 37° C., about 20 hours
Protocol: as §1, §2

Staph. 9TV = assay: MIC values, Staph. 9TV; conditions: 37° C., about 20 hours
Protocol: as §1, §2

E. coli Neumann = assay: MIC values, E. coli Neumann; conditions: Escherichia coli, 37° C., about 20 hours
Protocol: as §1, §2

Klebs. 57 USA = assay: MIC values, Klebs. 57 USA; conditions: 37° C., about 20 hours
Protocol: as §1, §2

Psdm. Bonn = assay: MIC values, Psdm. Bonn; conditions: 37° C., about 20 hours
Protocol: as §1, §2

MIC (Staph. 133) | MIC (Staph. 48N) | MIC (Staph 25701) | MIC (Staph. 9TV) | MIC (E. coli Neumann) | MIC (Klebs. 57 USA) | MIC (Psdm. Bonn) | SMILES
4 µg/mL (≈ 12.3 µM) | 4 µg/mL (≈ 12.3 µM) | 4 µg/mL (≈ 12.3 µM) | 1 µg/mL (≈ 3.07 µM) | > 32 µg/mL | > 32 µg/mL | > 32 µg/mL | CC(=O)NC[C@H]1CN(c2ccc(-c3ccc(C)cc3)cn2)C(=O)O1 [Example 36, (5S)-3-[5-(4-Methylphenyl)pyridin-2-yl]-5-acetyl-aminomethyl-oxazolidin-2-one]
0.25 µg/mL (≈ 0.737 µM) | 0.5 µg/mL (≈ 1.47 µM) | 0.5 µg/mL (≈ 1.47 µM) | 0.125 µg/mL (≈ 0.368 µM) | > 32 µg/mL | > 32 µg/mL | > 32 µg/mL | CC(=O)NC[C@H]1CN(c2ccc(-c3cccc(C=O)c3)cn2)C(=O)O1 [Example 39]
8 µg/mL (≈ 22 µM) | 2 µg/mL (≈ 5.5 µM) | 4 µg/mL (≈ 11 µM) | 2 µg/mL (≈ 5.5 µM) | > 64 µg/mL | > 64 µg/mL | > 64 µg/mL | CC(=O)NC[C@H]1CN(c2ccc(-c3ccc(F)c(Cl)c3)cn2)C(=O)O1 [Example 46]
4 µg/mL (≈ 12.1 µM) | 2 µg/mL (≈ 6.07 µM) | 1 µg/mL (≈ 3.04 µM) | 1 µg/mL (≈ 3.04 µM) | > 64 µg/mL | > 64 µg/mL | > 64 µg/mL | CC(=O)NC[C@H]1CN(c2ccc(-c3ccc(F)cc3)cn2)C(=O)O1 [Example 47]
4 µg/mL (≈ 11.2 µM) | 2 µg/mL (≈ 5.61 µM) | 2 µg/mL (≈ 5.61 µM) | 1 µg/mL (≈ 2.81 µM) | > 64 µg/mL | > 64 µg/mL | > 64 µg/mL | CC(=O)NC[C@H]1CN(c2ccc(-c3cccc([N+](=O)[O-])c3)cn2)C(=O)O1 [Example 48]

The next lines start with the molecule.

SMILES | MIC (Staph. 133) | MIC (Staph. 48N) | MIC (Staph 25701) | MIC (Staph. 9TV) | MIC (E. coli Neumann) | MIC (Klebs. 57 USA) | MIC (Psdm. Bonn)
CC(=O)NC[C@H]1CN(c2ccc3ncccc3c2)C(=O)O1 [Example 29] | 8 µg/mL (≈ 28 µM) | 8 µg/mL (≈ 28 µM) | 8 µg/mL (≈ 28 µM) | 8 µg/mL (≈ 28 µM) | > 64 µg/mL | > 64 µg/mL | 
CC(=O)NC[C@H]1CN(c2ccc(-c3ccccc3)cn2)C(=O)O1 [Example 37] | 1 µg/mL (≈ 3.21 µM) | 1 µg/mL (≈ 3.21 µM) | 1 µg/mL (≈ 3.21 µM) | 0.5 µg/mL (≈ 1.61 µM) | > 32 µg/mL | > 32 µg/mL | > 32 µg/mL
CC(=O)NC[C@H]1CN(c2ccc(-c3ccccc3C=O)cn2)C(=O)O1 [Example 38] | 4 µg/mL (≈ 11.8 µM) | 4 µg/mL (≈ 11.8 µM) | 8 µg/mL (≈ 23.6 µM) | 2 µg/mL (≈ 5.89 µM) | > 32 µg/mL | > 32 µg/mL | > 32 µg/mL
CC(=O)NC[C@H]1CN(c2ccc(-c3ccc(C=O)cc3)cn2)C(=O)O1 [Example 40] | 1 µg/mL (≈ 2.95 µM) | 1 µg/mL (≈ 2.95 µM) | 1 µg/mL (≈ 2.95 µM) | 0.5 µg/mL (≈ 1.47 µM) | > 32 µg/mL | > 32 µg/mL | > 32 µg/mL
CC(=O)NC[C@H]1CN(c2ccc(-c3ccc(C(C)=O)cc3)cn2)C(=O)O1 [Example 41] | 2 µg/mL (≈ 5.66 µM) | 4 µg/mL (≈ 11.3 µM) | 4 µg/mL (≈ 11.3 µM) | 1 µg/mL (≈ 2.83 µM) | > 32 µg/mL | > 32 µg/mL | > 32 µg/mL
CC(=O)NC[C@H]1CN(c2ccc(-c3cccc(C(C)=O)c3)cn2)C(=O)O1 [Example 42] | 4 µg/mL (≈ 11.3 µM) | 4 µg/mL (≈ 11.3 µM) | 4 µg/mL (≈ 11.3 µM) | 4 µg/mL (≈ 11.3 µM) | > 64 µg/mL | > 64 µg/mL | 
CC(=O)NC[C@H]1CN(c2ccc(-c3ccc(C(C)=O)s3)cn2)C(=O)O1 [Example 43] | 0.25 µg/mL (≈ 0.696 µM) | 0.5 µg/mL (≈ 1.39 µM) | 0.5 µg/mL (≈ 1.39 µM) | 0.25 µg/mL (≈ 0.696 µM) | > 32 µg/mL | > 32 µg/mL | > 32 µg/mL
CC(=O)NC[C@H]1CN(c2ccc(-c3csc(C=O)c3)cn2)C(=O)O1 [Example 44] | 2 µg/mL (≈ 5.79 µM) | 4 µg/mL (≈ 11.6 µM) | 2 µg/mL (≈ 5.79 µM) | 2 µg/mL (≈ 5.79 µM) | > 32 µg/mL | > 32 µg/mL | > 32 µg/mL
CC(=O)NC[C@H]1CN(c2ccc3cccc(-c4ccc(C)cc4)c3n2)C(=O)O1 [Example 59] | 1 µg/mL (≈ 2.66 µM) | 2 µg/mL (≈ 5.33 µM) | 1 µg/mL (≈ 2.66 µM) | 1 µg/mL (≈ 2.66 µM) | > 32 µg/mL | > 32 µg/mL | > 32 µg/mL
